In PubChem BioAssay AID2060492 (Molecular Pharmacology Branch, DTP, NCI, 2025):
pIC50: −log10 of the molar value.

Tested on: 695427-040-R-J1-PDC complex spheroids, viability percent T/C
Assay: Anticancer human tumor 695427-040-R-J1-PDC patient-derived colon adenocarcinoma cell line growth inhibition [GQUAD]
Settings: for pIC50: curve of first compound; for viability, T/C: stronger effect = lower value
Text: DNA G-quadruplex Stabilizer Agents in Combinations in Complex Spheroids
A high-throughput screen of multi-cell type tumor spheroids was designed to identify active combinations of DNA G-quadruplex stabilizer agents and targeted small molecules. Complex spheroids include a stromal component modeled by human endothelial cells (HUVEC) and fibroblasts modeled by human mesenchymal stem cells (MSCs). The concentration ranges selected for each drug and investigational agent were based upon clinically achievable concentrations if the clinical Cmax of the agent was known.
Compounds. The drugs and investigational agents: pidnarulex (CX-5461; NSC782164), APTO-253 (NSC789042), BRACO-19 (NSC847499), peposertib (NSC802822), ceralasertib (NSC780249), elimusertib (NSC800525), camonsertib (NSC841442), AZD-1390 (NSC803789), olaparib (NSC753686), talazoparib (NSC767125), ART-558 (NSC835418), sotorasib (NSC818433), MRTX-1133 (NSC836407), SN-38 (NSC673596), topotecan (NSC609699), etoposide (NSC141540), doxorubicin (NSC123127), gemcitabine (NSC613327), 5-fluorouracil (NSC19893), paclitaxel (NSC125973), vemurafenib (NSC761431), panobinostat (NSC761190), R-306465 (JNJ-16241199; NSC773264), adavosertib (NSC754352), TP-3654 (NSC805149), carboplatin (NSC241240), KSQ-4279 (NSC840948), and staurosporine (NSC755774) were obtained from the National Cancer Institute (NCI) Developmental Therapeutics Program Chemical Repository (34). The FDA-approved anticancer drug set is available from the NCI Developmental Therapeutics Program. […] The stock solutions were prepared in dimethyl sulfoxide (DMSO, Sigma-Aldrich, St. Louis, MO, cat. D2650) at 800-fold the tested concentration and stored at -70 degrees C prior to their use. All drugs and investigational agents were tested over a range starting from a high concentration at or near the clinical Cmax and decreasing in half-log increments. If the clinical Cmax for an agent had not been determined, the highest concentration tested was 10 microM.
2.3 Cell Culture. All cells were maintained in an incubator at 37 degrees C and 5% CO2 with 95% humidity. The PDC lines were cultured according to standard operating procedures established by the NCI PDMR. All PDCs were thawed and cultured in Matrigel-coated flasks prepared with a working solution of 1X Ham's F-12 nutrient mix, without supplementation (Invitrogen, cat. 11765054), 100 U/mL penicillin-streptomycin (Invitrogen, cat. 15140122), and 2.5% Matrigel (Corning Inc., cat. 354248) for the first three passages. The 857933-349-R-J2-PDC line was cultured in 6C/Colon 1B media, which includes advanced DMEM/F-12 (Thermo Fisher Scientific, cat. 12634028), 10 mM HEPES (Thermo Fisher Scientific, cat. 15630080), 1X GlutaMAX supplement (Thermo Fisher Scientific, cat. 35050061), 0.1 mg/mL primocin (InvivoGen, cat. ant-pm-2), 10% defined fetal bovine serum, heat inactivated (HyClone Laboratories Inc., cat. SH30070.03HI), 50% L-WRN conditioned media (ATCC, cat. CRL-3276), 1.25 mM N-Acetyl-L-cysteine (Sigma-Aldrich, cat. A9165), 10 mM nicotinamide (Sigma-Aldrich, cat. N0636), 1X B-27 supplement (Thermo Fisher Scientific, cat. 17504044), 1X N-2 supplement (Thermo Fisher Scientific, cat. 17502048), 10 microM Y-27632 dihydrochloride (Tocris Bioscience, cat. 1254), and 50 ng/mL human EGF recombinant protein (Thermo Fisher Scientific, cat. PHG0311). The 485176-168-R4-J1-PDC line was cultured in Panc media, which includes all 6C/Colon 1B media components plus 100 ng/mL human FGF-10 (Thermo Fisher Scientific, cat. 100-26), 500 nM SB-431542 (Selleckchem, cat. S1067), and gastrin (Tocris, cat. 3006).
[…]

[1] = second compound 0.0316 µM, first compound 0.0316 µM
[2] = second compound 0.0316 µM, first compound 0.1 µM
[3] = second compound 0.0316 µM, first compound 0.316 µM
[4] = second compound 0.0316 µM, first compound 1 µM
[5] = second compound 0.0316 µM, first compound 3.16 µM
[6] = second compound 0.0316 µM, first compound 10 µM
[7] = second compound 0.1 µM, first compound 0.0316 µM
[8] = second compound 0.1 µM, first compound 0.1 µM
[9] = second compound 0.1 µM, first compound 0.316 µM
[10] = second compound 0.1 µM, first compound 1 µM
[11] = second compound 0.1 µM, first compound 3.16 µM
[12] = second compound 0.1 µM, first compound 10 µM
[13] = second compound 0.316 µM, first compound 0.0316 µM
[14] = second compound 0.316 µM, first compound 0.1 µM
[15] = second compound 0.316 µM, first compound 0.316 µM
[16] = second compound 0.316 µM, first compound 1 µM
[17] = second compound 0.316 µM, first compound 3.16 µM
[18] = second compound 0.316 µM, first compound 10 µM
[19] = second compound 1 µM, first compound 0.0316 µM
[20] = second compound 1 µM, first compound 0.1 µM
[21] = second compound 1 µM, first compound 0.316 µM
[22] = second compound 1 µM, first compound 1 µM
[23] = second compound 1 µM, first compound 3.16 µM
[24] = second compound 1 µM, first compound 10 µM
[25] = second compound 3.16 µM, first compound 0.0316 µM
[26] = second compound 3.16 µM, first compound 0.1 µM
[27] = second compound 3.16 µM, first compound 0.316 µM
[28] = second compound 3.16 µM, first compound 1 µM
[29] = second compound 3.16 µM, first compound 3.16 µM
[30] = second compound 3.16 µM, first compound 10 µM
[31] = second compound 10 µM, first compound 0.0316 µM
[32] = second compound 10 µM, first compound 0.1 µM
[33] = second compound 10 µM, first compound 0.316 µM
[34] = second compound 10 µM, first compound 1 µM
[35] = second compound 10 µM, first compound 3.16 µM
[36] = second compound 10 µM, first compound 10 µM
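Note: spheroids exposed to compounds for seven days before readout.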

## CC1COCCN1c1cc(C2(S(C)(=N)=O)CC2)nc(-c2ccnc3[nH]ccc23)n1 (centres undefined) + CN(C)c1ccc(Nc2c3ccc(NC(=O)CCN4CCCC4)cc3nc3cc(NC(=O)CCN4CCCC4)ccc23)cc1
Second compound 0.0316 µM
  pIC50: < 5.00
Second compound 0.1 µM
  pIC50: < 5.00
Second compound 0.316 µM
  pIC50: < 5.00
Second compound 1 µM
  pIC50: < 5.00
Second compound 3.16 µM
  pIC50: < 5.00
Second compound 10 µM
  pIC50: < 5.00
[1]
  viability, T/C: 104%
[2]
  viability, T/C: 96.5%
[3]
  viability, T/C: 106%
[4]
  viability, T/C: 97%
[5]
  viability, T/C: 95.5%
[6]
  viability, T/C: 69.4%
[7]
  viability, T/C: 109%
[8]
  viability, T/C: 93.8%
[9]
  viability, T/C: 110%
[10]
  viability, T/C: 86.1%
[11]
  viability, T/C: 87%
[12]
  viability, T/C: 74%
[13]
  viability, T/C: 103%
[14]
  viability, T/C: 91.4%
[15]
  viability, T/C: 94.3%
[16]
  viability, T/C: 83.7%
[17]
  viability, T/C: 87.5%
[18]
  viability, T/C: 69.9%
[19]
  viability, T/C: 93.3%
[20]
  viability, T/C: 96.4%
[21]
  viability, T/C: 100%
[22]
  viability, T/C: 93.1%
[23]
  viability, T/C: 91.5%
[24]
  viability, T/C: 68.5%
[25]
  viability, T/C: 95.8%
[26]
  viability, T/C: 101%
[27]
  viability, T/C: 103%
[28]
  viability, T/C: 90.8%
[29]
  viability, T/C: 93.4%
[30]
  viability, T/C: 69.6%
[31]
  viability, T/C: 86.7%
[32]
  viability, T/C: 91.8%
[33]
  viability, T/C: 91.9%
[34]
  viability, T/C: 88.1%
[35]
  viability, T/C: 86%
[36]
  viability, T/C: 69.8%

## COc1ccc([C@@H](O)c2cc(-c3ncnc4cc(N5CCOCC5)ccc34)c(F)cc2Cl)nn1 + CN(C)c1ccc(Nc2c3ccc(NC(=O)CCN4CCCC4)cc3nc3cc(NC(=O)CCN4CCCC4)ccc23)cc1
Second compound 0.0316 µM
  pIC50: 5.08
Second compound 0.1 µM
  pIC50: < 5.00
Second compound 0.316 µM
  pIC50: 5.01
Second compound 1 µM
  pIC50: 5.10
Second compound 3.16 µM
  pIC50: 5.08
Second compound 10 µM
  pIC50: 5.16
[1]
  viability, T/C: 97.4%
[2]
  viability, T/C: 98.5%
[3]
  viability, T/C: 94.6%
[4]
  viability, T/C: 87.2%
[5]
  viability, T/C: 67.2%
[6]
  viability, T/C: 46.9%
[7]
  viability, T/C: 99.3%
[8]
  viability, T/C: 101%
[9]
  viability, T/C: 89.4%
[10]
  viability, T/C: 81.2%
[11]
  viability, T/C: 72.9%
[12]
  viability, T/C: 50%
[13]
  viability, T/C: 97.2%
[14]
  viability, T/C: 96.7%
[15]
  viability, T/C: 89.3%
[16]
  viability, T/C: 82.3%
[17]
  viability, T/C: 68.5%
[18]
  viability, T/C: 49.3%
[19]
  viability, T/C: 93.6%
[20]
  viability, T/C: 103%
[21]
  viability, T/C: 100%
[22]
  viability, T/C: 79%
[23]
  viability, T/C: 74.3%
[24]
  viability, T/C: 44.4%
[25]
  viability, T/C: 102%
[26]
  viability, T/C: 96.4%
[27]
  viability, T/C: 98.7%
[28]
  viability, T/C: 83.3%
[29]
  viability, T/C: 68.4%
[30]
  viability, T/C: 46.3%
[31]
  viability, T/C: 88.8%
[32]
  viability, T/C: 77.3%
[33]
  viability, T/C: 90.5%
[34]
  viability, T/C: 72.8%
[35]
  viability, T/C: 63.8%
[36]
  viability, T/C: 44%
